Peptide text beside a SMILES is read from it.
Key:
calmodulin = calmodulin (Bos taurus, UniProt P62157); assay: koff by competition experiments, native PAGE of fluorescein-labelled peptide/calmodulin complexes; format: binding, bovine; set-up: Complexes between calmodulin from bovine brain (1 μM, Sigma); purchased Sigma; host or cells: bovine brain (tissue-derived); details: for koff: competition with 30-fold excess unlabelled peptide, room temperature, gel buffer, read-out: koff (s^-1)^C; for dissociation from calmodulin in competition with excess unlabelled peptide, in words: FIG. 3
Experimental: Complexes between calmodulin from bovine brain (1 μM, Sigma) and fluorescein-labelled sMLCK-derived peptides (as described in Table 1 (SEQ ID NOS:2-18)) were prepared in gel buffer (25% gel mix [4 g sucrose+1 mg bromophenol blue in water to give a 10 ml solution]+75% TBSC [50 mM TRIS pH 7.4, […]+50 μM CaCl2)] and run on a 15% native PAGE gel (5 ml 30% acrylamide-bisacrylamide solution+4.5 ml water+0.5 ml 3M Tris, pH 8.8, +1 μl 1M CaCl2 polymerised with 30 μl 25% ammonium persulphate and 9 μl TEMED) using 14.4 g/l glycine+3 g/l Tris-base+0.1 mM CaCl2 as running buffer. Peptides were labelled either with iodoacetamido fluorescein (Molecular Probes) or with iodoacetamido-LC-biotin (Pierce) essentially as previously described by Neri et al., (1995). In these conditions, the fluorescence of the positively-charged labelled peptides can be detected only if they form a stable complex with calmodulin.
In order to obtain an independent experimental confirmation if the BIAcore results, koff constants for peptides 1-17 towards calmodulin were determined by competition experiments. 30 nM fluorescein-labelled peptide/calmodulin complexes in gel buffer were competed at room temperature for different times with 30-fold excess of unlabelled peptide. The resulting mixtures were run on native PAGE gels and imaged by LUANA as described above. The bands in the image obtained were integrated using the LUANA software (Neri et al., 1996) and the corresponding intersities plotted versus time and fitted with a single exponential, from which koff constants were derived. In order to normalise band intensities against pipetting errors, the samples contained 6 nM free fluorescein which ran with the front. The fluorescein bands were integrated and used to normalise the calmodulin/fluorescent peptide complex band intensity. The results of competitions for peptides 1, 2, 3, 6, 9, and 14 are shown in this FIG. 3. Incubation time in minutes is indicated under the lanes.
The volumes of the bands were plotted versus competition time and fitted to a single exponential, from which koff values were derived.
The fastest competitions (peptides 1-4, 9 and 13, SEQ ID NOS:2-5,10, and 14) were over by the time the calmodulin/fluorescent peptide complex entered the gel (approximately 5-10 minutes from pipetting a molar excess of unlabelled peptide; FIG. 3), from which a condition on the off-rate constant koff >1×10^-3 s^-1 was derived. Even for these fast off-rates, complexes can be detected by native polyacrylamide gel electrophoresis because of the well known gel "cage effect" (Fried and Crothers, 1981; Garner and Revzin, 1981).

bovine brain calmodulin [1] = molecular target: T1, bovine brain calmodulin (Bos taurus, UniProt P62157); assay: stopped-flow measurement of kisom of calmodulin-binding peptides; details: changes in tryptophan fluorescence
T1 construct: Complexes between calmodulin from bovine brain (1 μM, Sigma); purchased Sigma; host or cells: bovine brain (tissue-derived)
Description: It has been shown by Torok and Trentham (1994) that smooth muscle MLCK-derived peptides bind to calmodulin with a biphasic kinetic according to the scheme: [drawing 1]
in which P is the peptide, C is calmodulin, P-C is the first complex formed on association of P and C, which then undergoes a conformational isomerisation to P-C*.
(§1) For a kinetic and thermodynamic characterisation of the binding of the peptides of the present invention to bovine brain calmodulin, we have measured the kinetic isomerisation, association, and dissociation constants from which dissociation constants can be derived.
kisom constants have been measured by stopped-flow, detecting changes in tryptophan fluorescence for all the peptides except 3 (SEQ ID NO:4), in which the tryptophan is replaced by alanine.

bovine brain calmodulin [2] = molecular target: T1, bovine brain calmodulin; assay: BIAcore surface plasmon resonance, kon and koff of calmodulin binding to biotinylated peptides; details: BIAcore; for koff: read-out: koff (s^-1)^B; for kon: read-out: kon (s^-1 M^-1)^B
Description: as §1
koff =k-1·k-2 /(k+2 +k-2)
Real-time interaction analysis by surface plasmon resonance on a BIAcore instrument (Jonsson et al., 1991) was used to determine kon and koff constants. Biotinylated peptides 1-17 were bound to commercially available streptavidin-coated microsensor chips (Pharmacia Biosensor), in order to achieve a surface capacity of 100-200 surface plasmon resonance units of calmodulin bound. Different concentrations of calmodulin (5, 10, 20, 50 and 100 nM in the order of FIG. 2) were injected and allowed to associate with the peptides. Regeneration of the surface was achieved by injection of 5 μl TBS+[…] which dissociates the calmodulin-peptide complex.

Row | SMILES | koff (calmodulin) | kisom. (s^-1)^A (bovine brain calmodulin [1]) | koff (bovine brain calmodulin [2]) | kon (bovine brain calmodulin [2]) | dissociation from calmodulin in competition with excess unlabelled peptide, in words (calmodulin) | increase in kon with respect to the wild-type peptide 1 (bovine brain calmodulin [2])
1 | CC[C@H](C)[C@H](NC(=O)[C@H](Cc1ccccc1)NC(=O)[C@H](CC(N)=O)NC(=O)[C@H](CCCCN)NC(=O)[C@H](C)NC(=O)[C@H](Cc1c[nH]c2ccccc12)NC(=O)[C@H](CCCNC(=N)N)NC(=O)[C@H](C)NC(=O)[C@H](C)NC(=O)[C@H](C)NC(=O)[C@@H](N)CS)C(=O)N[C@@H](C)C(=O)N[C@H](C(=O)N[C@@H](CO)C(=O)N[C@@H](C)C(=O)N[C@@H](C)C(=O)N[C@@H](CC(N)=O)C(=O)N[C@@H](CCCNC(=N)N)C(=O)N[C@@H](Cc1ccccc1)C(=O)N[C@@H](CCCCN)C(=O)N[C@@H](CCCCN)C(=O)N[C@H](C(=O)N[C@@H](CO)C(N)=O)[C@@H](C)CC)C(C)C [Peptide 4] (H-CAAARWAKNFIAVSAANRFKKIS-NH2; N-terminus assumed) | ≥ 0.001 s⁻¹ | 2.4 (10.6) × 10^-1 s^-1 | 0.003 s⁻¹ | 1.3e+06 M⁻¹ s⁻¹ |  | 
2 | CC[C@H](C)[C@H](NC(=O)[C@H](Cc1ccccc1)NC(=O)[C@H](CC(N)=O)NC(=O)[C@H](CCCCN)NC(=O)[C@H](CCCCN)NC(=O)[C@H](Cc1c[nH]c2ccccc12)NC(=O)[C@H](C)NC(=O)[C@H](C)NC(=O)[C@H](C)NC(=O)[C@H](C)NC(=O)[C@@H](N)CS)C(=O)N[C@@H](C)C(=O)N[C@H](C(=O)N[C@@H](CO)C(=O)N[C@@H](C)C(=O)N[C@@H](C)C(=O)N[C@@H](CC(N)=O)C(=O)N[C@@H](CCCNC(=N)N)C(=O)N[C@@H](Cc1ccccc1)C(=O)N[C@@H](CCCCN)C(=O)N[C@@H](CCCCN)C(=O)N[C@H](C(=O)N[C@@H](CO)C(N)=O)[C@@H](C)CC)C(C)C [Peptide 2] (H-CAAAAWKKNFIAVSAANRFKKIS-NH2; N-terminus assumed) | ≥ 0.001 s⁻¹ | 1.2 (10.5) × 10^-1 s^-1 | 0.0015 s⁻¹ | 3e+06 M⁻¹ s⁻¹ | dissociated from calmodulin in a few minutes | 4-5 fold
3 | CC[C@H](C)[C@H](NC(=O)[C@H](Cc1ccccc1)NC(=O)[C@H](CC(N)=O)NC(=O)[C@H](CCCCN)NC(=O)[C@H](CCCCN)NC(=O)[C@H](Cc1c[nH]c2ccccc12)NC(=O)[C@H](CCCNC(=N)N)NC(=O)[C@H](C)NC(=O)[C@H](C)NC(=O)[C@H](C)NC(=O)[C@@H](N)CS)C(=O)N[C@@H](C)C(=O)N[C@H](C(=O)N[C@@H](CO)C(=O)N[C@@H](C)C(=O)N[C@@H](C)C(=O)N[C@@H](CC(N)=O)C(=O)N[C@@H](CCCNC(=N)N)C(=O)N[C@@H](Cc1ccccc1)C(=O)N[C@@H](CCCCN)C(=O)N[C@@H](CCCCN)C(=O)N[C@H](C(=O)N[C@@H](CO)C(N)=O)[C@@H](C)CC)C(C)C [Peptide 1, CAAA-RWKKNFIAVSAANRFKKIS-CONH2] (H-CAAARWKKNFIAVSAANRFKKIS-NH2; N-terminus assumed) | ≥ 0.001 s⁻¹ | 1.9 (10.7) × 10^-1 s^-1 | 0.0024 s⁻¹ | 650000 M⁻¹ s⁻¹ | dissociated from calmodulin in a few minutes | 
4 | CC[C@H](C)[C@H](NC(=O)[C@H](CCCCN)NC(=O)[C@H](CCCCN)NC(=O)[C@H](Cc1ccccc1)NC(=O)[C@H](CCCNC(=N)N)NC(=O)[C@H](CC(N)=O)NC(=O)[C@H](C)NC(=O)[C@H](C)NC(=O)[C@H](CO)NC(=O)[C@@H](NC(=O)[C@H](C)NC(=O)[C@H](C)NC(=O)[C@H](Cc1ccccc1)NC(=O)[C@H](CC(N)=O)NC(=O)[C@H](CCCCN)NC(=O)[C@H](CCCCN)NC(=O)[C@H](Cc1c[nH]c2ccccc12)NC(=O)[C@H](CCCNC(=N)N)NC(=O)[C@H](C)NC(=O)[C@H](C)NC(=O)[C@H](C)NC(=O)[C@@H](N)CS)C(C)C)C(=O)N[C@@H](CO)C(N)=O [Peptide 8] (H-CAAARWKKNFAAVSAANRFKKIS-NH2; N-terminus assumed) | 0.00047 s⁻¹ | 1.1 (10.3) × 10^-1 s^-1 | 0.00023 s⁻¹ | 920000 M⁻¹ s⁻¹ |  | 

From patent publication US6316409A, “Modified ligands of calcium-dependent binding proteins” (Medical Research Council, priority 1996, dated 2001)
